Molecular target: T1, TYRO3 (RSE) (Homo sapiens, UniProt Q06418)
T1 construct: purchased Thermo Fisher Scientific (Life Technologies) SelectScreen
Assay: SelectScreen Z'LYTE
Type: biochemical
Procedure, shortened: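 NU5455 was profiled across the SelectScreen Broad panel of kinase activity and binding assays. Z'LYTE reactions such as CSF1R ran at apparent Km ATP, while the Adapta CAMK1 assay used ATP listed as 10. Values are given as percent.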

T1 sequence (Q06418 41-890): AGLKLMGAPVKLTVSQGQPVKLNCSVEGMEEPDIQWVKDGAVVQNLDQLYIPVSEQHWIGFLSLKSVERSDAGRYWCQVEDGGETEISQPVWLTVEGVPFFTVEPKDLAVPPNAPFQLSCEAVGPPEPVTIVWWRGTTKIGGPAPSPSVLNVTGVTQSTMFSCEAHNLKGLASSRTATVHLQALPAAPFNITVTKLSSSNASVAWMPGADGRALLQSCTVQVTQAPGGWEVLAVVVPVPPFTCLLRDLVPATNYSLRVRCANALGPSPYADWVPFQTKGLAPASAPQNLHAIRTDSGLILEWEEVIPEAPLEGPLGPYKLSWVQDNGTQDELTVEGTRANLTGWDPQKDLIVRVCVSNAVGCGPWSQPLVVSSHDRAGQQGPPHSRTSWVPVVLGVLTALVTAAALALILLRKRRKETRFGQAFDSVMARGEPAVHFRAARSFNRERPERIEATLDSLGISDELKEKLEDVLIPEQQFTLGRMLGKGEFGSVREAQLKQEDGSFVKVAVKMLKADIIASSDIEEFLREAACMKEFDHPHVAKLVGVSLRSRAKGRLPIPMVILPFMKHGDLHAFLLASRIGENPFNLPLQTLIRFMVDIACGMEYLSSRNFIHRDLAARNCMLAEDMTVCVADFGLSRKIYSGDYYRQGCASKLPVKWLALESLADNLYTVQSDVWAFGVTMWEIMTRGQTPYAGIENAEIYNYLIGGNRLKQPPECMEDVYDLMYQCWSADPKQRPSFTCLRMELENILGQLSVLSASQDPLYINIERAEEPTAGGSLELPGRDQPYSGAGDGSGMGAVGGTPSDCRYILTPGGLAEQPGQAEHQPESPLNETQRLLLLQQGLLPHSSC

Compound CN(C(=O)CN1CCOCC1)c1ccc2sc3c(-c4cccc5c(=O)cc(N6CC7CCC(C6)O7)oc45)cccc3c2c1 [NU5455] has an inhibition at 1 µM of -5.1%.
